Laboratory results published in patent publication US5071957A, “Antibiotic BU-4061T” (Bristol-Myers Company, priority 1990, dated 1991).
In brackets after ≈: the same amount, converted by molar mass.

Legend:
[1] = tested on: B16-F10 (murine melanoma) cells; experiment: In vitro cytotoxicity against B16-F10 cells; type: cell-based; settings: 72 hours, colorimetric at 540 nm
Protocol: (§1) B16-F10 (murine melanoma) and Moser (human colorectal carcinoma) cells were grown to the logarithmic phase in the enriched Eagle minimum essential medium supplemented with fetal calf serum (FCS, 10%) and kanamycin (60 μg/ml), while HCT-116 (human colon carcinoma) was grown in McCoy's 5A medium supplemented with FCS (10%) penicillin (100 μ/ml) and streptomycin (100 μg/ml). B16-F10, Moser and HCT-116 cells were harvested and implanted into wells of a 96-well microtiter plate with test materials at the inoculum sizes of 3×10^4, 6×10^4 and 6×10^4 cells/ml, respectively. They were incubated at 37° C. in a humidified atmosphere of 5% CO2 and 95% air for 72 hours. The cytotoxicity against tumor cells was determined colorimetrically at 540 nm after staining viable cells.

[2] = tested on: HCT-116 (human colon carcinoma); experiment: In vitro cytotoxicity against HCT-116 cells; type: cell-based; settings: 72 hours, colorimetric at 540 nm
Protocol: as §1

[3] = tested on: Moser (human colorectal carcinoma) cells; experiment: In vitro cytotoxicity against Moser cells; type: cell-based
Protocol: as §1

[4] = tested on: DNA synthesis in B16-F10 melanoma cells; experiment: Inhibition of DNA synthesis (3H-thymidine incorporation) in B16-F10 melanoma cells; type: cell-based, murine
Protocol: (§2) Inhibitory effects of BU-4061T on the macromolecule (DNA, RNA and protein) synthesis were determined in cultured B16-F10 melanoma cells. B16-F10 cells (10^5 cells/ml) were incubated with the compound at 37° C. for 4.5 hours (for DNA synthesis) or 4 hours (for RNA and protein synthesis). Labelled precursor, ^3 H-thymidine, ^14 C-uridine or ^3 H-leucine was added to the culture and further incubated for 30 minutes (for DNA) or 60 minutes (for RNA and protein). After washing with chilled 5% trichloroacetic acid solution, the radioactivity incorporated into the acid-insoluble fraction of the tumor cells was determined by a liquid scintillation counter.

[5] = tested on: RNA synthesis in B16-F10 melanoma cells; experiment: Inhibition of RNA synthesis (14C-uridine incorporation) in B16-F10 melanoma cells; type: cell-based, murine
Protocol: as §2

[6] = tested on: protein synthesis in B16-F10 melanoma cells; experiment: Inhibition of protein synthesis (3H-leucine incorporation) in B16-F10 melanoma cells; type: cell-based, murine
Protocol: as §2

[7] = tested on: B16 melanoma; experiment: Antitumor activity against B16 melanoma (ip)
Protocol: (§3) To determine in vivo antitumor activity of BU-4061T, male BDF1 mice were intraperitoneally inoculated with 0.5 ml of 10% melanotic melanoma B16 brei, and female CDF1 mice were intraperitoneally inoculated with 0.4 ml of diluted ascitic fluid containing 10^6 lymphocytic leukemia P388 cells. […] Test materials were intraperitoneally administered to mice on days 1, 5 and 9 (Q4D×3) or on days 1 to 9 (QlD×9).

[8] = tested on: P388 leukemia; experiment: Antitumor activity against P388 leukemia (ip); settings: Q1D × 9
Protocol: as §3

[9] = Solubility (physico-chemical properties); type: physicochemical
Excerpt: BU-4061T was obtained as a white amorphous powder. […] BU-4061T gave positive response to iodine vapor, ammonium molybdate-sulfuric acid solution and Rydon-Smith reagent, but negative response to ninhydrin and anthrone reagent.

CC[C@H](C)[C@H](NC(=O)[C@H]([C@@H](C)CC)N(C)C(C)=O)C(=O)N[C@H](C(=O)N[C@@H](CC(C)C)C(=O)[C@@]1(C)CO1)[C@@H](C)O [BU-4061T]
IC50 B16-F10 [1]: 0.0047 µg/mL (≈ 0.00847 µM)
IC50 HCT-116 [2]: 0.0067 µg/mL (≈ 0.0121 µM)
IC50 Moser ([3]; 72 hours, colorimetric at 540 nm): 0.17 µg/mL (≈ 0.306 µM)
cytotoxicity against Moser cells (in words) ([3]; compared with B16-F10 and HCT-116 cells): weaker than that against B16-F10 and HCT-116 cells
inhibitory effect on DNA synthesis (in words) [4]: moderate inhibitory effects
IC50 DNA ([4]; 4.5 hours + 30 minutes 3H-thymidine): 16 µg/mL
inhibitory effect on RNA synthesis (in words) [5]: moderate inhibitory effects
IC50 RNA ([5]; 4 hours + 60 minutes 14C-uridine): 46 µg/mL
inhibition of incorporation of leucine into the protein fraction (in words) ([6]; 100 μg/ml, the highest concentration tested): did not significantly inhibit
IC50 Protein ([6]; B16-F10 cells, 4 hours + 60 minutes 3H-leucine): > 100 µg/mL
MST (median survival time) ([7]; 0.063 mg/kg/day ip, Q1D × 9): 15.5 days
T/C ([7]; 0.063 mg/kg/day ip, Q1D × 9): 119%
MST (median survival time) ([7]; 0.13 mg/kg/day ip, Q1D × 9): 16.0 days
T/C ([7]; 0.13 mg/kg/day ip, Q1D × 9): 123%
MST (median survival time) ([7]; 0.25 mg/kg/day ip, Q1D × 9): 18.0 days
MST (median survival time) ([7]; 0.25 mg/kg/day ip, Q4D × 3): 14.5 days
T/C ([7]; 0.25 mg/kg/day ip, Q4D × 3): 112%
MST (median survival time) ([7]; 0.5 mg/kg/day ip, Q1D × 9): 19.5 days
MST (median survival time) ([7]; 0.5 mg/kg/day ip, Q4D × 3): 15.5 days
T/C ([7]; 0.5 mg/kg/day ip, Q4D × 3): 119%
MST (median survival time) ([7]; 1 mg/kg/day ip, Q1D × 9): 19.0 days
MST (median survival time) ([7]; 1 mg/kg/day ip, Q4D × 3): 15.5 days
T/C ([7]; 1 mg/kg/day ip, Q4D × 3): 119%
MST (median survival time) ([7]; 2 mg/kg/day ip, Q4D × 3): 17.0 days
MST (median survival time) ([7]; 4 mg/kg/day ip, Q4D × 3): 16.5 days
antitumor activity against B16 melanoma (in words) ([7]; ip, either Q4D×3 or Q1D×9 treatment schedule): significant antitumor activities
MST (median survival time) ([8]; 0.063 mg/kg/day ip): 10.5 days
T/C ([8]; 0.063 mg/kg/day ip): 105%
MST (median survival time) ([8]; 0.13 mg/kg/day ip): 11.0 days
T/C ([8]; 0.13 mg/kg/day ip): 110%
MST (median survival time) ([8]; 0.25 mg/kg/day ip): 11.5 days
T/C ([8]; 0.25 mg/kg/day ip): 115%
MST (median survival time) ([8]; 0.5 mg/kg/day ip): 13.0 days
MST (median survival time) ([8]; 1 mg/kg/day ip): 10.5 days
T/C ([8]; 1 mg/kg/day ip): 105%
solubility in ethyl acetate ([9]; ethyl acetate): readily soluble
solubility in methanol ([9]; methanol): readily soluble
solubility in methylene chloride ([9]; methylene chloride): readily soluble
solubility in water ([9]; water): practically insoluble

CO[C@@]12[C@H](COC(N)=O)C3=C(C(=O)C(C)=C(N)C3=O)N1C[C@@H]1N[C@@H]12 [Mitomycin C, mitomycin C]
Body Wt. change on day 5 ([7]; 0.3 mg/kg/day ip, Q4D × 3): -0.3 g
MST (median survival time) ([7]; 0.3 mg/kg/day ip, Q4D × 3): 13.0 days
T/C ([7]; 0.3 mg/kg/day ip, Q4D × 3): 100%
Body Wt. change on day 5 ([7]; 1 mg/kg/day ip, Q4D × 3): -0.8 g
MST (median survival time) ([7]; 1 mg/kg/day ip, Q4D × 3): 18.0 days
Body Wt. change on day 5 ([7]; 3 mg/kg/day ip, Q4D × 3): -0.3 g
MST (median survival time) ([7]; 3 mg/kg/day ip, Q4D × 3): 28.0 days
Body Wt. change on day 4 ([8]; 0.063 mg/kg/day ip): +0.8 g
MST (median survival time) ([8]; 0.063 mg/kg/day ip): 11.0 days
T/C ([8]; 0.063 mg/kg/day ip): 110%
Body Wt. change on day 4 ([8]; 0.13 mg/kg/day ip): +1.3 g
MST (median survival time) ([8]; 0.13 mg/kg/day ip): 12.0 days
T/C ([8]; 0.13 mg/kg/day ip): 120%
Body Wt. change on day 4 ([8]; 0.25 mg/kg/day ip): +1.0 g
MST (median survival time) ([8]; 0.25 mg/kg/day ip): 13.0 days
Body Wt. change on day 4 ([8]; 0.5 mg/kg/day ip): 0.0 g
MST (median survival time) ([8]; 0.5 mg/kg/day ip): 15.5 days
Body Wt. change on day 4 ([8]; 1 mg/kg/day ip): -0.8 g
MST (median survival time) ([8]; 1 mg/kg/day ip): 17.0 days
